Source: PubChem BioAssay AID330 (DTP/NCI, 2004)
“And” between values parts separate entries of the source, which are not always exact repeats. Equal entries are not always repeated. Inconclusive results and toxic doses are left out. Rule for the calls: active = survival T/C of 150% or more; inactive = T/C below 125% in these data.

Tested on: P388 leukemia ip, CD2F1 mice, survival T/C
Assay: NCI In Vivo Anticancer Drug Screen. Data for tumor model P388 Leukemia (intraperitoneal) in CD2F1 (CDF1) mice
Details: endpoint: median survival time, higher = longer survival
In short: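 Mice carrying the transplanted tumor received test compound or vehicle. Survival was recorded in each group, and the value is the treated-group measurement divided by that of the vehicle-treated control group.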

[1] = dose: 50.0 mg/kg/injection, schedule: Q01DX005 (ip), vehicle: Klucel (hydroxypropylcellulose) (HPC)
[2] = dose: 50.0 mg/kg/injection, schedule: Q01DX005 (ip), vehicle: saline with Tween-80
[3] = dose: 100.0 mg/kg/injection, schedule: Q01DX005 (ip), vehicle: saline with Tween-80
[4] = dose: 200.0 mg/kg/injection, schedule: Q01DX005 (ip), vehicle: saline with Tween-80
[5] = dose: 50.0 mg/kg/injection, schedule: Q01DX009 (ip), vehicle: saline
[6] = dose: 100.0 mg/kg/injection, schedule: Q01DX009 (ip), vehicle: saline
[7] = dose: 200.0 mg/kg/injection, schedule: Q01DX009 (ip), vehicle: saline
[8] = dose: 100.0 mg/kg/injection, schedule: Q04DX003 (ip), vehicle: saline with Tween-80
[9] = dose: 12.5 mg/kg/injection, schedule: Q01DX009 (ip), vehicle: distilled water + Tween-80
[10] = dose: 25.0 mg/kg/injection, schedule: Q01DX009 (ip), vehicle: distilled water + Tween-80
[11] = dose: 50.0 mg/kg/injection, schedule: Q01DX009 (ip), vehicle: distilled water + Tween-80
[12] = dose: 100.0 mg/kg/injection, schedule: Q04DX003 (ip), vehicle: saline
[13] = dose: 60.0 mg/kg/injection, schedule: Q01DX005 (ip), vehicle: saline with Tween-80
[14] = dose: 120.0 mg/kg/injection, schedule: Q01DX005 (ip), vehicle: saline with Tween-80

Measured: T/C

COc1ccc2c(CCN(/C=C/C(C)=O)C(C)=O)cn(C(C)=O)c2c1
inactive: dose: 12.5 mg/kg/injection, schedule: Q01DX005 (ip), vehicle: Klucel (hydroxypropylcellulose) (HPC) 109 % of control | dose: 25.0 mg/kg/injection, schedule: Q01DX005 (ip), vehicle: Klucel (hydroxypropylcellulose) (HPC) 104 % of control | [1] 100 % of control

Cc1ccc(C)c(NC(=O)Oc2cc(C)c(Cl)c(C)c2)c1
inactive: dose: 50.0 mg/kg/injection, schedule: Q01DX009 (ip), vehicle: saline with Tween-80 101 % of control | dose: 100.0 mg/kg/injection, schedule: Q01DX009 (ip), vehicle: saline with Tween-80 105 % of control | dose: 200.0 mg/kg/injection, schedule: Q01DX009 (ip), vehicle: saline with Tween-80 98 % of control

CC(C)=CCC/C(C)=C\C1OC(C)C(C)O1 (stereo unspecified)
inactive: [2] 104 % of control | [3] 100 % of control | [4] 107 % of control

CCN1C(=O)NS(=O)(=O)c2ccccc21
inactive: [2] 94 % of control | [3] 107 % of control | [4] 97 % of control

COCCOC
inactive: [5] 95 % of control | [6] 98 % of control | [7] 100 % of control | dose: 400.0 mg/kg/injection, schedule: Q01DX009 (ip), vehicle: saline 100 % of control

O=C/C=C/c1ccc([N+](=O)[O-])cc1
inactive: dose: 25.0 mg/kg/injection, schedule: Q04DX003 (ip), vehicle: saline with Tween-80 100 % of control | dose: 50.0 mg/kg/injection, schedule: Q04DX003 (ip), vehicle: saline with Tween-80 110 % of control | [8] 105 % of control

CCOC(=O)c1ccc(NN=NCCO)cc1
inactive: [9] 97 % of control | [10] 100 % of control | [11] 100 % of control | dose: 100.0 mg/kg/injection, schedule: Q01DX009 (ip), vehicle: distilled water + Tween-80 95 % of control | dose: 200.0 mg/kg/injection, schedule: Q01DX009 (ip), vehicle: distilled water + Tween-80 118 % of control

C=C1C(=O)O[C@H]2[C@H]1[C@H](OC(=O)/C(C)=C\C)CC(=C)[C@@H]1[C@H](O)[C@H]3O[C@@]3(C)[C@@]12O
inactive: dose: 6.25 mg/kg/injection, schedule: Q01DX009 (ip), vehicle: saline 102 % of control | dose: 12.5 mg/kg/injection, schedule: Q01DX009 (ip), vehicle: saline 106 % of control and 111 % of control | dose: 25.0 mg/kg/injection, schedule: Q01DX009 (ip), vehicle: saline 112 % of control and 113 % of control | [5] 121 % of control | [6] 109 % of control

Cc1c(NC(=S)Nc2ccc(Cl)c(Cl)c2)c(=O)n(-c2ccccc2)n1C
inactive: dose: 50.0 mg/kg/injection, schedule: Q01DX009 (ip), vehicle: Klucel (hydroxypropylcellulose) (HPC) 106 % of control | dose: 100.0 mg/kg/injection, schedule: Q01DX009 (ip), vehicle: Klucel (hydroxypropylcellulose) (HPC) 93 % of control | dose: 200.0 mg/kg/injection, schedule: Q01DX009 (ip), vehicle: Klucel (hydroxypropylcellulose) (HPC) 88 % of control

CC(=O)OC(C)C(C)N(C)C (stereo unspecified)
inactive: [12] 94 % of control | dose: 200.0 mg/kg/injection, schedule: Q04DX003 (ip), vehicle: saline 101 % of control

O=[N+]([O-])c1nccn1CCCl
inactive: [9] 95 % of control | [10] 113 % of control | [11] 100 % of control

CCC(/C=C/C1OC(=O)C=CC1C)=C\C(C)C/C=C/C(C)=C/C(C)C(=O)C(C)C(O)C(C)C/C(C)=C/C(=O)O (stereo unspecified)
inactive: dose: 12.5 micrograms/kg/injection, schedule: Q01DX005 (ip), vehicle: saline + alcohol 118 % of control | dose: 100.0 micrograms/kg/injection, schedule: Q01DX005 (ip), vehicle: saline + alcohol 92 % of control

C1CC1C(=NN=C(C1CC1)C1CC1)C1CC1
inactive: dose: 6.25 mg/kg/injection, schedule: Q01DX009 (ip), vehicle: saline with Tween-80 102 % of control | dose: 12.5 mg/kg/injection, schedule: Q01DX009 (ip), vehicle: saline with Tween-80 101 % of control | dose: 25.0 mg/kg/injection, schedule: Q01DX009 (ip), vehicle: saline with Tween-80 96 % of control

C=CCC(C(C)=O)C(=O)OC (stereo unspecified)
inactive: dose: 50.0 mg/kg/injection, schedule: Q01DX005 (ip), vehicle: saline 90 % of control | dose: 100.0 mg/kg/injection, schedule: Q01DX005 (ip), vehicle: saline 104 % of control | dose: 200.0 mg/kg/injection, schedule: Q01DX005 (ip), vehicle: saline 100 % of control

CC/C(=C1/C=C(O)C(=O)C=C1OC)c1ccc(OC)cc1
inactive: dose: 2.5 mg/kg/injection, schedule: Q01DX009 (ip), vehicle: saline + alcohol 100 % of control | dose: 5.0 mg/kg/injection, schedule: Q01DX009 (ip), vehicle: saline + alcohol 101 % of control | dose: 10.0 mg/kg/injection, schedule: Q01DX009 (ip), vehicle: saline + alcohol 103 % of control

CCOC(=O)CC(=O)Nc1sc(CC)cc1C(=O)OCC
inactive: [13] 100 % of control | [14] 94 % of control

O=C1NC(=O)C(=O)N1
inactive: [12] 100 % of control | dose: 400.0 mg/kg/injection, schedule: Q04DX003 (ip), vehicle: saline 100 % of control

Cc1no[n+]([O-])c1NC(=O)OCc1ccccc1
inactive: dose: 7.5 mg/kg/injection, schedule: Q01DX005 (ip), vehicle: saline with Tween-80 96 % of control | dose: 15.0 mg/kg/injection, schedule: Q01DX005 (ip), vehicle: saline with Tween-80 100 % of control | dose: 30.0 mg/kg/injection, schedule: Q01DX005 (ip), vehicle: saline with Tween-80 99 % of control | [13] 107 % of control | [14] 101 % of control | dose: 240.0 mg/kg/injection, schedule: Q01DX005 (ip), vehicle: saline with Tween-80 100 % of control

Cc1cc(=O)n(-c2ccc([N+](=O)[O-])cc2)c(C)c1C(=O)O
inactive: [2] 98 % of control | [3] 103 % of control | [4] 106 % of control

Cc1cc2nnn(C3OC(CO)C(O)C3O)c2cc1C (stereo unspecified)
inactive: [1] 105 % of control | dose: 100.0 mg/kg/injection, schedule: Q01DX005 (ip), vehicle: Klucel (hydroxypropylcellulose) (HPC) 107 % of control | dose: 200.0 mg/kg/injection, schedule: Q01DX005 (ip), vehicle: Klucel (hydroxypropylcellulose) (HPC) 104 % of control

CC1(C)OP(=O)(O)C=C1Br
inactive: [5] 103 % of control | [6] 107 % of control | [7] 93 % of control

CCC(c1ccc(OC)cc1)C(NCC(=O)NNC(=S)Nc1ccccc1)c1ccc(OC)cc1 (stereo unspecified)
inactive: dose: 100.0 mg/kg/injection, schedule: Q01DX001 (ip), vehicle: saline with Tween-80 92 % of control | dose: 200.0 mg/kg/injection, schedule: Q01DX001 (ip), vehicle: saline with Tween-80 101 % of control | dose: 400.0 mg/kg/injection, schedule: Q01DX001 (ip), vehicle: saline with Tween-80 108 % of control

C=CCCCn1nnc2ccccc21
inactive: [8] 102 % of control | dose: 200.0 mg/kg/injection, schedule: Q04DX003 (ip), vehicle: saline with Tween-80 94 % of control | dose: 400.0 mg/kg/injection, schedule: Q04DX003 (ip), vehicle: saline with Tween-80 86 % of control

C1CC[N-]CC1.C1CC[N-]CC1.C1CC[N-]CC1.[Cr+6].[N-]=C=S.[N-]=C=S.[N-]=C=S
inactive: dose: 100.0 mg/kg/injection, schedule: Q04DX002 (ip), vehicle: acetone 97 % of control | dose: 100.0 mg/kg/injection, schedule: Q04DX002 (ip), vehicle: distilled water + alcohol 99 % of control | dose: 200.0 mg/kg/injection, schedule: Q04DX002 (ip), vehicle: acetone 97 % of control
